Data set [1] relates to MIA PaCa-2 pancreatic cancer cells. Kind of data set: Cell Glo luminescence cell growth assay, MIA PaCa-2. Format: cell-based, human. The conditions noted are these: Homo sapiens, MIA PaCa-2, 24 h, NS = not statistically significant, read-out: Effectiveness to suppress MIA PaCa-2 cell growth (cell growth inhibition). The text has this:
(§1) The CellTiter-Glo® Luminescent Cell Viability Assay (Promega Corporation; Madison, WI) is a homogeneous method of determining the number of viable cells in culture based on quantitation of the ATP present, an indicator of metabolically active cells. The homogeneous assay procedure involves adding the single reagent (CellTiter-Glo® Reagent) directly to cells cultured in serum-supplemented medium. The homogeneous “add-mix-measure” format results in cell lysis and generation of a luminescent signal proportional to the amount of ATP present. The amount of ATP is directly proportional to the number of cells present in culture.
(§2) Cancer cells (3,000 cells/well) were harvested in a 96-well plate. Then, the cancer cells were treated with GS compounds and incubated for 24 hours. The MT Cell Viability Substrate, NanoLuc® Enzyme and cell culture medium was equilibrated to 37° C. The 2× RealTime-Glo™ reagent was prepared by diluting the MT Cell Viability Substrate and NanoLuc® Enzyme in 37° C. cell culture medium to a 2× concentration for each reagent. For example, 1 mL of 2× RealTime-Glo™ reagent was prepared by adding 2 μL of MT Cell Viability Substrate, 1,000×, and 2 μL of NanoLuc® Enzyme, 1,000×, to 996 μL of cell culture medium to form the 2× RealTime-Glo™ reagent. Then, an equal volume of 2× RealTime-Glo™ reagent was added to the cancer cells. The cells were kept for ˜20 minutes in the cell culture incubator and then luminescence was measured by using a plate-reading luminometer.
MIA PaCa-2 is a human pancreatic ductal adenocarcinoma cell line derived from the carcinoma of a person.
(§3) The effects of exemplary compounds on cancer cell lines and one non-tumorigenic cell line (control) were investigated using a high throughput screening assay. More specifically, the effects of the GS compounds on cell growth was evaluated by the XTT assay for cell lines HepG2, HeLa, MCF7 ER+, MDA-MB-231, and MKN-45, and by the Cell Glo luminescence assay for cell lines MIA PaCa-2, HCT-116, MCF-10A, and PANC-1.

Data set [2] deals with HeLa cervical cancer cells. Kind of data set: XTT cell growth assay, HeLa. Type of data set: cell-based, human. To be noted: Homo sapiens, HeLa, 24 h, NS = not statistically significant, read-out: Effectiveness to suppress HeLa cell growth (cell growth inhibition).
Excerpt: (§4) The XTT assay is used to measure cellular metabolic activity as an indicator of cell viability, proliferation and cytotoxicity. This non-radioactive, colorimetric assay system was first described by Scudiero, et al. in 1988 (Paull, Kenneth D. et al., J Heterocycl Chem, 1988, 25: 911-914; Scudiero, Dominic A. et al., Cancer Res, 1988, 48: 4827-4833) and improved in subsequent years by several other investigators (Weislow, Owen S. et al., J Natl Cancer Inst, 1989, 81(8): 577-586; Roehm, N. W. et al., J Immunol Methods, 1991, 142: 257-265).
(§5) The XTT assay is based on the reduction of a yellow tetrazolium salt (sodium 3′-[1-(phenylaminocarbonyl)-3,4-tetrazolium]-bis (4-methoxy6-nitro) benzene sulfonic acid hydrate or XTT) to an orange formazan dye by metabolically active cells (FIG. 8). The formazan dye formed is soluble in aqueous solutions and is directly quantified using a scanning multiwell spectrophotometer (ELISA reader). An increase in number of living cells results in an increase in the overall activity of mitochondrial dehydrogenases in the sample. This increase directly correlates to the amount of orange formazan formed, as monitored by the absorbance. Reduced number of living cells leads to reduced metabolism of quaternary salt and therefore reduced absorption.
(§6) Cell viability was assessed using the XTT assay kit (Roche, Mannheim, Germany) as described previously (Kouka, Paraskevi et al., Oxid Med Cell Longev. 2019, Article ID 1870965). Briefly, cancer cells per well were cultured in a 96-well plate in Dulbecco's modified Eagle's medium (DMEM). Following a 24 h incubation, 5, 10 and 50 μM of the tested GS compound was diluted in a serum-free DMEM and administered for 24 h. Subsequently, 50 μL of the XTT reagent (50:1) was added to each well. After 4 h of incubation, the absorbance was monitored at 450 nm and also at 630 nm as a reference wavelength in a BioTek ELx800 microplate reader (BioTek Instruments Inc., Winooski, VT, USA). As a negative control, samples containing serum-free DMEM only were used.
HeLa is a human immortal cell line used in scientific research. It is the oldest and most commonly used human cell line. The line was derived from cervical cancer cells taken on Feb. 8, 1951 from Henrietta Lacks, a patient who died of cancer on Oct. 4, 1951.
as §3
In general terms: Tetrazolium assays rely on reduction of a dye to a coloured formazan, in cell work by metabolically active cells.

The subject of data set [3] is MCF-7 ER+ breast cancer cells. The experiment in a line: XTT cell growth assay, MCF-7 ER+. Type of data set: cell-based, human. The conditions noted are these: Homo sapiens, MCF7, 24 h, NS = not statistically significant, read-out: Effectiveness to suppress MCF7 cell growth (cell growth inhibition).
Excerpt: as §4, §5, §6
MCF-7 ER+ is a human breast cancer cell line isolated in 1970 from a person. Prior to MCF-7, it was not possible for cancer researchers to obtain a mammary cell line that was capable of living longer than a few months.
as §3

In data set [4] the test system is MDA-MB-231 triple negative breast cancer cells. The experiment in a line: XTT cell growth assay, MDA-MB-231. Type of data set: cell-based, human. To be noted: Homo sapiens, MDA-MB-231, 24 h, NS = not statistically significant, read-out: Effectiveness to suppress MDA-MB-231 cell growth (cell growth inhibition).
Excerpt: as §4, §5, §6
MDA-MB-231 is a human epithelial breast cancer cell line that was established from a pleural effusion of a person with a metastatic mammary adenocarcinomal and is one of the most commonly used breast cancer cell lines in medical research laboratories.
as §3

The subject of data set [5] is MKN-45 gastric cancer cells. Kind of data set: XTT cell growth assay, MKN-45. Format: cell-based, human. The conditions noted are these: Homo sapiens, MKN-45, 24 h, NS = not statistically significant, read-out: Effectiveness to suppress MKN-45 cell growth (cell growth inhibition).
Excerpt: as §4, §5, §6
MKN-45 is a human gastric adenocarcinoma, established from the poorly differentiated adenocarcinoma of the stomach (medullary type) of a person.
as §3

The subject of data set [6] is HCT-116 colon cancer cells. Kind of data set: Cell Glo luminescence cell growth assay, HCT-116. Format: cell-based, human. To be noted: NS = not statistically significant; for inhibition at 1 µM: Homo sapiens, HCT-116, 24 h, read-out: Effectiveness to suppress HCT-116 cell growth (cell growth inhibition).
Excerpt: as §1, §2
HCT-116 is a human colorectal cancer cell lines that has a mutation in RAS proto-oncogene.
as §3

A short description of data set [7]: Deoxyribose degradation assay (hydroxyl radical scavenging). Format: biochemical. To be noted: NS = not statistically significant. Here is the method: The hydroxyl radical (OH.) is an extremely reactive in biological systems and has been implicated as highly damaging species in free radical pathology, capable of damaging biomolecules of the living cells. These radical combines with nucleotides in DNA and cause strand breakage leading to carcinogenesis, mutagenesis and cytotoxicity. Hydroxyl radical (OH.) scavenging capacity of an extract is directly related to its antioxidant activity.
The effect of extracts on hydroxyl radicals was assayed by using the deoxyribose method. 2-Deoxyribose is degraded on exposure to hydroxyl radicals generated by Fenton's reaction. The ability to neutralize the OH. is estimated as the rate of inhibition of the oxidation of 2-deoxyribose by the OH. (FIG. 5).
The measurement of the hydroxyl radical scavenging activity was evaluated for each of the GS compound by evaluating the pink chromogen absorption at 532 nm by spectrophotometry as described previously (Perjesi, Pal et al., Open Med Chem J., 2011, 5: 61-67

Another data set relates to pACLY (S455). The experiment in a line: ELISA of pACLY (S455) / ACLY enzymatic activity in PANC-1 cells. Format: cell-based, human. The conditions noted are these: 5 μM. Here is the method:
ELISA assay was used to evaluate the effect of GS compounds on protein activity levels in PANC-1 cancer cells. PANC-1 cells were serum-starved overnight and then treated with rIGF1 (100 ng/mL) for 24 hours, with or without GS27 (5 μM). The levels of the following proteins were evaluated by ELISA assay: a) p70 S6 (T389) (cat no. 54164C, Cell Signaling); b) pAKT (S473), (cat no. 80895, Cell Signaling); c) pACLY (S455), (cat no. okag1672, Avivasysbio); d) pAMPK (T172) (cat no. 7959C, Cell Signaling) and e) p65/NFKB (S536), (cat no. 7173, Cell Signaling).
PANC-1 is a human pancreatic ductal adenocarcinoma cell line derived from the carcinoma of a person.
The molecular mechanism of action of GS27, a compound that has exerted potent anti-cancer activity in different cancer cell lines including pancreatic cancer cells, was investigated. Oleacein has been implicated to have anti-inflammatory and metabolic effects, thus the potential effects of GS27 in different metabolic and inflammatory pathways were evaluated. Specifically, the protein levels of p70 S6 (T389), pAKT (S473), pACLY (S455), pAMPK (T172) and p65/NFKB (S536) were evaluated by ELISA assay in PANC-1 pancreatic cancer cells treated with 5 μM GS27. GS27 reduced p70 S6 and AKT phosphorylation levels, while it increased AMPK phosphorylation.
The effects of different GS compounds on ACLY enzymatic activity were evaluated by ELISA assay in PANC-1 pancreatic cancer cells. […] This finding is unexpected, since GS21 has a very similar structure with GS27, with the only difference being the presence of an oxygen atom in ester GS21 instead of a sulfur atom in thioester GS27.
In general terms: In an ELISA, binding on a coated surface is turned into a signal by an enzyme label.

A further data set deals with HepG2 liver cancer cells. Kind of data set: XTT cell growth assay, HepG2. Type of data set: cell-based, human. To be noted: Homo sapiens, HepG2, 24 h, NS = not statistically significant, read-out: Effectiveness to suppress HepG2 cell growth (cell growth inhibition).
Excerpt: as §4, §5, §6
Hep G2 (or HepG2) is a human liver cancer cell line. Hep G2 is an immortal cell line which was derived from the liver tissue of an adolescent with a well-differentiated hepatocellular carcinoma. Hep G2 cells are a suitable in vitro model system for the study of polarized human hepatocytes.
as §3

What is called inhibition is the drop in the measured response relative to a control, in per cent.

Each structure is given as a SMILES string.

`C/C=C1/[C@H](OC2OC(CO)C(O)C(O)C2O)OC=C(C(=O)O)[C@H]1CC(=O)OCCOc1ccccc1` (stereo in doubt) [GS10, (2S,4S,E)-3-ethylidene-4-(2-oxo-2-(2-phenoxyethoxy)ethyl)-2-{[(2R,3S,4R,5R,6S)-3,4,5-trihydroxy-6-(hydroxymethyl)tetrahydro-2H-pyran-2-yl]oxy}-3,4-dihydro-2H-pyran-5-carboxylic acid]: the inhibition at 50 µM in data set [1] turned out to be 22%; in [2], 33.5%; in [3] it was 58.7%; in [4], 14%; in data set [5] it was 31.9%. In addition, in [6] (1 uM, 24 h), the “Effectiveness to suppress HCT-116 cell growth (cell growth inhibition)” value was “suppressive activity”. The inhibition at 1 µM in data set [6] came out at 25.7%.

Consider `C/C=C(/C=O)[C@@H](CC=O)CC(=O)OCCc1ccccc1` [GS21, (35,4E)-4-formyl-3-(2-oxoethyl)-4-hexenoic acid 2-phenylethyl ester], for which, in data set [7], the “Deoxyribose Degradation Assay IC50” value is listed as 14.4 μg extract/mL. Besides, the inhibition at 50 µM came out at 75.8% in data set [2], 66% in data set [3], 52.5% in [4] and 49.4% in data set [5]. The inhibition at 1 µM in [6] was 21.5%. Besides, the “ACLY enzymatic activity (ELISA)” value in the data set on pACLY (S455) is recorded as “small effect”.

As to `C/C=C(/C=O)[C@@H](CC=O)CC(=O)OCCC1CCCCC1` [GS22, 2-cyclohexylethyl (S,E)-4-formyl-3-(2-oxoethyl)hex-4-enoate], in data set [7], the “Deoxyribose Degradation Assay IC50” value worked out at 16.8 μg extract/mL. For the same molecule, the inhibition at 50 µM stood at 28% in [1]; 66.8% with HepG2 liver cancer cells; 48.6% in [2]; 48% in data set [4]; 35.8% in data set [5].

Values taken from US12414960B2, “Analogues of oleuropein and oleacein and uses thereof” (Attica Sciences Ltd., priority 2020, dated 2025).
